# Assay results reported in ChEMBL document CHEMBL1149709, “Synthesis and SAR of 2-aryl pyrido[2,3-d]pyrimidines as potent mGlu5 receptor antagonists” (Bioorg Med Chem Lett, 2007).
# pIC50: −log10 of the molar value.
# What was measured:
# [1] = molecular target: Metabotropic glutamate receptor 5 (Rattus norvegicus, UniProt P31424); test: Antagonistic activity at rat mGluR5 expressed in CHO cells assessed as inhibition of quisqualate stimulated calcium mobilization by FLIPR technology; type: functional, cell-based
# Chain of Metabotropic glutamate receptor 5 (P31424 whole entry): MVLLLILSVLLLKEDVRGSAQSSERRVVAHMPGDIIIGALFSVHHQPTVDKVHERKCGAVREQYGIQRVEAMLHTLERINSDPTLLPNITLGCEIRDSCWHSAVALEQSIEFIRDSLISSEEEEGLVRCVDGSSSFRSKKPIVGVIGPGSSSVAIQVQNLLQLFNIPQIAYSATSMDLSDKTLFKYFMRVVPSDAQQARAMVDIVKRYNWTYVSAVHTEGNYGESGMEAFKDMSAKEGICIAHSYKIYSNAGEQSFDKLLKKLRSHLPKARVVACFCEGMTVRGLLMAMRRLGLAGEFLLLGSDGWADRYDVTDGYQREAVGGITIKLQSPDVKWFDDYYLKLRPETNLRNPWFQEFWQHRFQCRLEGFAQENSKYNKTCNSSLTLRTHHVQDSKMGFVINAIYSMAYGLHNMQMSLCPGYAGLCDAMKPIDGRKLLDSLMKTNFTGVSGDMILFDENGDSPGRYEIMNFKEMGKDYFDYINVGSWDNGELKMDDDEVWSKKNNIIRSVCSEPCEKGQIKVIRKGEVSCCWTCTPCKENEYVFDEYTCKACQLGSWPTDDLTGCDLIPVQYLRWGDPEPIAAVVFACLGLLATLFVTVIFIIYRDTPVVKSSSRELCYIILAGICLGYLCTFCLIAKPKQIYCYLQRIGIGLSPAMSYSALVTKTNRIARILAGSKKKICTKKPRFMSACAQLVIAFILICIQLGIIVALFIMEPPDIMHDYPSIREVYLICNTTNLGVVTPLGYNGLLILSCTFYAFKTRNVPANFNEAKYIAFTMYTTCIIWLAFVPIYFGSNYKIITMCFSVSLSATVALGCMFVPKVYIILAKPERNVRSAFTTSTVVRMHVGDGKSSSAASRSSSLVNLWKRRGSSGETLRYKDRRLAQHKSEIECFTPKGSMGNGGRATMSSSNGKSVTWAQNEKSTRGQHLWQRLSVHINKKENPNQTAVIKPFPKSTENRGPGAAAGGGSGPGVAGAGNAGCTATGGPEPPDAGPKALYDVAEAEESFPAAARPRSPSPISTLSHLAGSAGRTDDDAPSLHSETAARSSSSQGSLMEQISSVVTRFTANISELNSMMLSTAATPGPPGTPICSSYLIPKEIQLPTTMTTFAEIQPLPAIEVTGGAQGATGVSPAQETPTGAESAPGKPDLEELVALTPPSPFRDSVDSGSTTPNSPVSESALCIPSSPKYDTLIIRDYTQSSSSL
# Rattus norvegicus [2] = test: Effect on rat monosodium iodoacetate model of osteoarthritis pain assessed as inhibition of change in hind paw weight at 10 mg/kg, po after 2 hrs; type: organism-based; design: dose 10 mg/kg, route oral; conditions: in vivo
# Rattus norvegicus [3] = test: Effect on rat monosodium iodoacetate model of osteoarthritis pain assessed as inhibition of change in hind paw weight at 10 mg/kg, po after 4 hrs; type: organism-based; design: dose 10 mg/kg, route oral; conditions: in vivo
Compound,pIC50 [1],Activity (Rattus norvegicus [2]),Activity (Rattus norvegicus [3])
COc1cccc(-c2ncc3ccc(C)nc3n2)c1,5.82,–,–
Cc1ccc2cnc(-c3cccc(S(C)(=O)=O)c3)nc2n1,< 4.52,–,–
COc1ccccc1-c1ncc2ccc(C)nc2n1,< 4.52,–,–
COC(=O)c1ccc(-c2ncc3ccc(C)nc3n2)cc1,< 4.52,–,–
Cc1ccc2cnc(-c3ccc(Br)cc3)nc2n1,< 4.52,–,–
COc1cc(-c2ncc3ccc(C)nc3n2)cc(OC)c1OC,< 4.52,–,–
Brc1cccc(-c2ncc3cccnc3n2)c1,6.48,–,–
Cc1cc(F)cc(-c2ncc3cccnc3n2)c1,6.49,–,–
Cc1ccc2cnc(-c3ccc(C#N)cc3)nc2n1,< 4.52,–,–
Cc1ccc2cnc(-c3ccc(Cl)c(Cl)c3)nc2n1,< 4.52,–,–
Cc1ccc2cnc(-c3ccc(Cl)cc3Cl)nc2n1,< 4.52,–,–
N#Cc1cccc(-c2ncc3cccnc3n2)c1,< 4.58,–,–
Cc1ccc2cnc(-c3ccccc3)nc2n1,5.57,–,–
Cc1ccc2cnc(-c3cccc(CN)c3)nc2n1,< 4.52,–,–

# Compounds with a higher pIC50 [1], results first:
pIC50 [1],Activity (Rattus norvegicus [2]),Activity (Rattus norvegicus [3]),Compound
6.62,–,–,Cc1ccc2cnc(-c3cccc(C#N)c3)nc2n1
6.64,–,–,Clc1cc(Cl)cc(-c2ncc3cccnc3n2)c1
6.75,–,–,COc1cc(OC)cc(-c2ncc3ccc(C)nc3n2)c1
7.28,–,–,Cc1cccc(-c2ncc3ccc(C)nc3n2)c1
7.40,–,–,Cc1cc(F)cc(-c2ncc3ccc(C)nc3n2)c1
7.42,–,–,Cc1ccc2cnc(-c3cccc(Br)c3)nc2n1
8.31,–,–,COc1cc(C#N)cc(-c2ncc3cccnc3n2)c1
8.92,Active,Active,COc1cc(C#N)cc(-c2ncc3ccc(C)nc3n2)c1
9.14,–,–,Cc1ccc2cnc(-c3cc(Cl)cc(Cl)c3)nc2n1
